Source: PMC11277004, “Di- and Triselenoesters—Promising Drug Candidates for the Future Therapy of Triple-Negative Breast Cancer” (International Journal of Molecular Sciences, 2024)

What was measured:
[1] = test system: human breast cancer cells MCF-7 and MDA-MB-231; set-up: method as in PMID 36077839; settings: 3 µM; cited from earlier work
[2] = test system: MCF-7, MDA-MB-231 and MCF-10A cells; assay: Viability (MTT) and DNA biosynthesis, summary statements over the tested cell lines; assay type: cell-based, human; settings: DNA biosynthesis, vs EDAG-1 and EDAG-8
Description: The MTT assay was used to determine the cytotoxic effects of the compounds in the study on MCF-7 and MDA-MB-231 breast cancer cells as well as MCF-10A normal human breast epithelial cells based on Carmichael’s method. All cultured cell lines were treated with varied concentrations of the tested compounds in the medium (0.5–5 µM) and incubated for 24 h in an incubator providing optimal conditions for cell culture growth (37 °C temperature, 5% CO2, and 90–95% humidity) in 6-well plates (baseline seeding density: 5 × 10^5 cells/well). After this time, the medium was removed, and the cell monolayer was washed with warm phosphate-buffered saline (PBS) without calcium and magnesium. In the next step, PBS and MTT solution in PBS (5 mg/mL) were added to each well to obtain a final MTT concentration of 0.5 mg/mL, and then the cells were incubated for 4 h (37 °C temperature, 5% CO2, 90–95% humidity). After the incubation period, the contents of each well were removed, 1 mL of DMSO was added to dissolve the formazan, and then the plate with the added DMSO was mixed for 5–10 min on a microplate shaker (Boeco, Hamburg, Germany). Then, 10 µL of Sorensen’s glycine buffer (a solution of 0.1 M glycine and 0.1 M sodium chloride adjusted to pH 10.5 with 0.1 M sodium hydroxide) was added. The absorbance of the obtained solution was immediately measured at a wavelength of λ = 570 nm using a Thermo Scientific Evolution 201 UV–VIS spectrophotometer (Thermo Fisher Scientific, Waltham, MA, USA). The absorbance result obtained in the control cells (without the addition of the tested compounds) was taken as 100%, while the viability of cells incubated with the tested compounds was presented as a percentage of the control value.
The study of the antiproliferative properties (intensity of [^3H]-thymidine incorporation into cell DNA) of the tested derivatives against tested cell lines (MCF-7, MDA-MB-231, MCF-10A) was performed after 24 h incubation with varied concentrations of the tested compounds in the medium (0.5–5 µM) in 6-well plates (baseline seeding density: 5 × 10^5 cells/well). After 24 h the medium was removed, the cells were washed with PBS (Corning, Kennebunk, ME, USA), and a fresh medium was added. […] Radioactivity was measured using the Scintillation Counter 1900 TR, TRI-CARB (Packard, Perkin Elmer, Inc., San Jose, CA, USA). The intensity of DNA biosynthesis in the analyzed cells was expressed in terms of dpm/well. The result of the radioactivity measurement in the control cells (without the addition of tested compounds) was taken as 100%, while the values of cells incubated with the tested compounds were presented as a percentage of the control value.

[3] = test system: MCF-10A normal human breast epithelial cells; assay: MTT cytotoxicity test, MCF-10A; assay type: cell-based; settings: Homo sapiens, 24 h incubation, read-out: IC50, cell viability (MTT)
Description: (§1) MCF-7 and MDA-MB-231 human breast cancer cell lines, as well as MCF-10A normal human breast epithelial cells, were acquired from the American Type Culture Collection (ATCC, Manassas, VA, USA). The characteristics of the breast cancer cell lines used in this study are compared in Table 1. MCF-7 and MDA-MB-231 cells were cultured in Dulbecco’s modified Eagle’s medium (Gibco, San Diego, CA, USA), while MCF-10A cells were cultured in the mammary epithelial cell growth medium with the following supplements: BPE, hEGF, insulin, hydrocortisone, GA-1000 (Lonza, Basel, Switzerland). All media were complemented by 10% of fetal bovine serum (FBS) and 1% of the following antibiotics: penicillin and streptomycin (both Gibco, San Diego, CA, USA). The cells were maintained in an incubator that provides the optimal growth conditions for the cell culture: 5% CO2, 37 °C, and humidity in a range of 90–95%. The cells were cultured in 100 mm plates (Sarstedt, Newton, NC, USA). Subsequently, after obtaining a subconfluent cell culture, the cells were detached with 0.05% trypsin with 0.02% EDTA (Gibco, San Diego, CA, USA). […] In this study, cells that obtained 80% confluence were used. The MTT assay was used to determine the cytotoxic effects of the compounds in the study on MCF-7 and MDA-MB-231 breast cancer cells as well as MCF-10A normal human breast epithelial cells based on Carmichael’s method. […] After this time, the medium was removed, and the cell monolayer was washed with warm phosphate-buffered saline (PBS) without calcium and magnesium. In the next step, PBS and MTT solution in PBS (5 mg/mL) were added to each well to obtain a final MTT concentration of 0.5 mg/mL, and then the cells were incubated for 4 h (37 °C temperature, 5% CO2, 90–95% humidity). After the incubation period, the contents of each well were removed, 1 mL of DMSO was added to dissolve the formazan, and then the plate with the added DMSO was mixed for 5–10 min on a microplate shaker (Boeco, Hamburg, Germany). Then, 10 µL of Sorensen’s glycine buffer (a solution of 0.1 M glycine and 0.1 M sodium chloride adjusted to pH 10.5 with 0.1 M sodium hydroxide) was added. The absorbance of the obtained solution was immediately measured at a wavelength of λ = 570 nm using a Thermo Scientific Evolution 201 UV–VIS spectrophotometer (Thermo Fisher Scientific, Waltham, MA, USA). The absorbance result obtained in the control cells (without the addition of the tested compounds) was taken as 100%, while the viability of cells incubated with the tested compounds was presented as a percentage of the control value.

[4] = test system: MCF-7 breast cancer cells; assay: MTT cytotoxicity test, MCF-7; assay type: cell-based, human; settings: Homo sapiens, MCF7; MCF-7, 24 h incubation; read-out: IC50, cell viability (MTT)
Description: as §1

[5] = test system: MCF-10A normal human breast epithelial cells; assay: DNA biosynthesis assay ([3H]-thymidine incorporation), MCF-10A; assay type: cell-based; settings: Homo sapiens, 24 h, read-out: IC50, DNA biosynthesis
Description: (§2) The study of the antiproliferative properties (intensity of [^3H]-thymidine incorporation into cell DNA) of the tested derivatives against tested cell lines (MCF-7, MDA-MB-231, MCF-10A) was performed after 24 h incubation with varied concentrations of the tested compounds in the medium (0.5–5 µM) in 6-well plates (baseline seeding density: 5 × 10^5 cells/well). After 24 h the medium was removed, the cells were washed with PBS (Corning, Kennebunk, ME, USA), and a fresh medium was added. After that, the cells were treated with 0.5 µCi of tritium-labeled thymidine (specific activity 7 Ci/mmol) by incubating them with this compound for 4 h under the same conditions as the cell culture. In the first step, the medium was removed, and the cell monolayer was washed twice with 1 mL of 0.05 M Tris-HCl buffer pH 7.4 containing 0.11 M NaCl. To denature proteins, the cells were washed twice with 1 mL of 5% trichloroacetic acid (TCA) solution. Finally, cell lysis was performed by adding 1 mL of 0.1 M sodium hydroxide (NaOH) solution containing 1% sodium dodecyl sulfate (SDS) to each well. After five minutes, the obtained cell lysates were transferred to scintillation vials with 2 mL of scintillation fluid added to them beforehand. Radioactivity was measured using the Scintillation Counter 1900 TR, TRI-CARB (Packard, Perkin Elmer, Inc., San Jose, CA, USA). The intensity of DNA biosynthesis in the analyzed cells was expressed in terms of dpm/well. The result of the radioactivity measurement in the control cells (without the addition of tested compounds) was taken as 100%, while the values of cells incubated with the tested compounds were presented as a percentage of the control value.

[6] = test system: MCF-7 breast cancer cells; assay: DNA biosynthesis assay ([3H]-thymidine incorporation), MCF-7; assay type: cell-based, human; settings: Homo sapiens, MCF7, 24 h, read-out: IC50, DNA biosynthesis
Description: as §2

[7] = test system: MDA-MB-231 triple-negative breast cancer cells; assay: DNA biosynthesis assay ([3H]-thymidine incorporation), MDA-MB-231; assay type: cell-based, human; settings: Homo sapiens, MDA-MB-231, 24 h, read-out: IC50, DNA biosynthesis
Description: as §2

[8] = test system: MDA-MB-231 triple-negative breast cancer cells; assay: MTT cytotoxicity test, MDA-MB-231; assay type: cell-based, human
Description: as §1

| SMILES | cells in which the apoptotic process was triggered [1] | fold weaker antiproliferative activity than the most active derivatives [2] | IC50 [3] | IC50 [4] | IC50 [5] | IC50 [6] | IC50 [7] | IC50 ([8]; Homo sapiens, MDA-MB-231, 24 h incubation, read-out: IC50, cell viability (MTT)) | fold weaker cytotoxic activity than the most active compounds ([8]; MDA-MB-231, MTT, vs EDAG-8/EDAG-1) |
| --- | --- | --- | --- | --- | --- | --- | --- | --- | --- |
| CC(=O)C[Se]C(=O)c1ccc(Cl)cc1 [EDA-71] | over 50% |  |  |  |  |  |  |  |  |
| N#CC[Se]C(=O)c1ccc(C(=O)[Se]CC#N)cc1 [EDAG-7, Se,Se-bis(cyanomethyl) benzene-1,4-bis(carboselenoate)] |  | 2–3 fold | 4.64 ± 0.24 µM | 3.15 ± 0.21 µM | 2.33 ± 0.02 µM | 1.81 ± 0.11 µM | 2.04 ± 0.16 µM | > 5 µM |  |
| N#CC[Se]C(=O)c1cc(C(=O)[Se]CC#N)cc(C(=O)[Se]CC#N)c1 [EDAG-10, Se,Se,Se-tris-(cyanomethyl) benzene-1,3,5-tris-(carboxyselenoate)] |  | 2–3 fold | 4.18 ± 0.29 µM | 2.6 ± 0.03 µM | 1.6 ± 0.05 µM | 1.95 ± 0.11 µM | 1.56 ± 0.08 µM |  | ~4 fold |
